Consider 31 compounds from US11998539B2, “Substituted aminoquinolones as DGKalpha inhibitors for immune activation” (Bayer Aktiengesellschaft, priority 2019, dated 2024).

In this test the target is DGKα (Homo sapiens (Human), UniProt P23743). In words: Human DGKα kinase activity inhibition assay (ADP-Glo). The test is classed as biochemical. The note with it: recombinant full-length human DGKα, 55 μM ATP, 7 μM 1,2-dioleoyl-sn-glycerol, read-out: IC50 values of examples in in vitro human DGKa kinase activity inhibition assays. An outline of the steps: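 Activity was measured as ADP production, detected by luciferase luminescence after removal of unused ATP. The enzyme was baculovirus-expressed full-length human DGKα with a C-terminal FLAG tag. The substrate was 1,2-dioleoyl-sn-glycerol in detergent micelles, and compounds came from 100× DMSO solutions.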
DGKα, sequence (P23743 other isoform, or with tags, fused parts or gaps): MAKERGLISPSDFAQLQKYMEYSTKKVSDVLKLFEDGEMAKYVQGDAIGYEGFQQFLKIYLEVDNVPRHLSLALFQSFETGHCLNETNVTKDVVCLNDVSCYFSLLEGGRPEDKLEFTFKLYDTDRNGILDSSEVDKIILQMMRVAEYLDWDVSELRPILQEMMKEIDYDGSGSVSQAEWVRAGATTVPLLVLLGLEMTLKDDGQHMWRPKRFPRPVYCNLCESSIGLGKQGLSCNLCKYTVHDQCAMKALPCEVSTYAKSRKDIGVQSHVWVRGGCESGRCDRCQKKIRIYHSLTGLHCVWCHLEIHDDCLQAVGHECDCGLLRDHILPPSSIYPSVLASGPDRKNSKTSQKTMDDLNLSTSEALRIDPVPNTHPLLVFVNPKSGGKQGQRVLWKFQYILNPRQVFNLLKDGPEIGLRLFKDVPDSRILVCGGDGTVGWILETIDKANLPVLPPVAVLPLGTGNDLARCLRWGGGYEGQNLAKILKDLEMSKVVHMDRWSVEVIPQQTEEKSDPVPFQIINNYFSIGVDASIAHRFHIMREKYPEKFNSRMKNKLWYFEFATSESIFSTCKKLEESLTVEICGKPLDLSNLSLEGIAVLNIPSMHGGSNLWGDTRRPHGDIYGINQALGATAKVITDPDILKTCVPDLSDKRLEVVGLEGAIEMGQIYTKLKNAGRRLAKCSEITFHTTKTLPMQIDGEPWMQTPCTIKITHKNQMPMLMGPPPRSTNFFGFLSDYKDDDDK
Background: ADP-Glo turns the ADP formed in a reaction into a luminescent signal.
In the case of `Cc1ccc2oc(C3CCN(c4c(C(N)=O)c(=O)n(C)c5ccc(S(C)(=O)=O)cc45)CC3)nc2c1` [Example 454, 6-(methanesulfonyl)-1-methyl-4-[4-(5-methyl-1,3-benzoxazol-2-yl)piperidin-1-yl]-2-oxo-1,2-dihydroquinoline-3-carboxamide], the IC50 came out at 373 nM. In the case of `Cc1ccc2oc(C3CCN(c4c(C#N)c(=O)n(C)c5cc(O[C@@H]6CCOC6)c(Br)cc45)CC3)nc2c1` [Example 537, (−)-6-bromo-1-methyl-4-[4-(5-methyl-1,3-benzoxazol-2-yl)piperidin-1-yl]-2-oxo-7-{[(3R)-oxolan-3-yl]oxy}-1,2-dihydroquinoline-3-carbonitrile], the IC50 is 0.2 nM. With `Cn1c(=O)c(C#N)c(N2CCC(C)(c3nc4ccccc4o3)CC2)c2cccc(Br)c21` [Example 156, 4-[4-(1,3-benzoxazol-2-yl)-4-methylpiperidin-1-yl]-8-bromo-1-methyl-2-oxo-1,2-dihydroquinoline-3-carbonitrile], the IC50 was 182 nM. Next, `Cn1c(=O)c(C#N)c(N2CCC(c3nnc(-c4ccccc4)o3)CC2)c2cc(Br)ccc21` [Example 441, 6-bromo-1-methyl-2-oxo-4-[4-(5-phenyl-1,3,4-oxadiazol-2-yl)piperidin-1-yl]-1,2-dihydroquinoline-3-carbonitrile]: 11 nM; `CNC(=O)c1c(N2CCC(c3nc4ccccc4s3)CC2)c2ccccc2n(C)c1=O` [Example 145, 4-[4-(1,3-benzothiazol-2-yl)piperidin-1-yl]-N,1-dimethyl-2-oxo-1,2-dihydroquinoline-3-carboxamide]: 41 nM. Take `CCOc1ccc2c(c1)c(N1CCC(c3nc4cc(C)ccc4o3)CC1)c(C(N)=O)c(=O)n2C` [Example 502, 6-ethoxy-1-methyl-4-[4-(5-methyl-1,3-benzoxazol-2-yl)piperidin-1-yl]-2-oxo-1,2-dihydroquinoline-3-carboxamide]: the IC50 is 120 nM. Regarding `Cn1c(=O)c(C#N)c(N2CCC(c3cccc(NS(=O)(=O)c4ccccc4)c3)CC2)c2ccccc21` [Example 68, N-{3-[1-(3-cyano-1-methyl-2-oxo-1,2-dihydroquinolin-4-yl)piperidin-4-yl]phenyl}benzenesulfonamide], the IC50 came to 99 nM. Next, `Cn1c(=O)c(C#N)c(N2CCC(c3nc4cc(Cl)ccc4o3)CC2)c2ccccc21` [Example 11, 4-[4-(5-chloro-1,3-benzoxazol-2-yl)piperidin-1-yl]-1-methyl-2-oxo-1,2-dihydroquinoline-3-carbonitrile]: 3.8 nM; `Cn1c(=O)c(C#N)c(N2CCC(C)(c3cc4ccccc4s3)CC2)c2ccccc21` [Example 342, 4-[4-(1-benzothiophen-2-yl)-4-methylpiperidin-1-yl]-1-methyl-2-oxo-1,2-dihydroquinoline-3-carbonitrile]: 2.9 nM; `Cc1ccc2oc(C3CCN(c4c(C(N)=O)c(=O)n(C)c5ccc(P(C)(C)=O)cc45)CC3)nc2c1` [Example 453, 6-(dimethylphosphoryl)-1-methyl-4-[4-(5-methyl-1,3-benzoxazol-2-yl)piperidin-1-yl]-2-oxo-1,2-dihydroquinoline-3-carboxamide]: 598 nM. As for `COCc1ccc2oc(C3(C)CCN(c4c(C(N)=O)c(=O)n(C)c5ccccc45)CC3)nc2c1` [Example 490, 4-{4-[5-(methoxymethyl)-1,3-benzoxazol-2-yl]-4-methylpiperidin-1-yl}-1-methyl-2-oxo-1,2-dihydroquinoline-3-carboxamide], the IC50 turned out to be 7.8 nM. The same measure for `Cc1ccc2oc(C3CCN(c4c(C#N)c(=O)n(C)c5cc(OC6CCCOC6)ccc45)CC3)nc2c1` (stereo not shown) [Example 414, 1-methyl-4-[4-(5-methyl-1,3-benzoxazol-2-yl)piperidin-1-yl]-7-{[oxan-3-yl]oxy}-2-oxo-1,2-dihydroquinoline-3-carbonitrile]: 1.3 nM.

In the case of `Cc1ccccc1-n1ccc(C2CCN(c3c(C#N)c(=O)n(C)c4ccccc34)CC2)n1` [Example 367, 1-methyl-4-{4-[1-(2-methylphenyl)-1H-pyrazol-3-yl]piperidin-1-yl}-2-oxo-1,2-dihydroquinoline-3-carbonitrile], the IC50 is 21 nM. For `Cc1ccc2c(N3CCC(C)(c4nc5ccccc5o4)CC3)c(C(N)=O)c(=O)n(C)c2c1` [Example 311, 4-[4-(1,3-benzoxazol-2-yl)-4-methylpiperidin-1-yl]-1,7-dimethyl-2-oxo-1,2-dihydroquinoline-3-carboxamide], the IC50 was 1.2 nM. Next, `Cc1ccccc1-c1nnc(C2CCN(c3c(C#N)c(=O)n(C)c4cc(O)c(Br)cc34)CC2)o1` [Example 445, 6-bromo-7-hydroxy-1-methyl-4-{4-[5-(2-methylphenyl)-1,3,4-oxadiazol-2-yl]piperidin-1-yl}-2-oxo-1,2-dihydroquinoline-3-carbonitrile]: 44 nM; `Cn1c(=O)c(C#N)c(N2CCC(c3nc4ccc(C5COC5)cc4o3)CC2)c2ccccc21` [Example 388, 1-methyl-4-{4-[6-(oxetan-3-yl)-1,3-benzoxazol-2-yl]piperidin-1-yl}-2-oxo-1,2-dihydroquinoline-3-carbonitrile]: 33 nM. Next, `Cn1c(=O)c(C#N)c(N2CCC(c3ccc(C(F)(F)F)cc3)CC2)c2ccccc21` [Example 61, 1-methyl-2-oxo-4-{4-[4-(trifluoromethyl)phenyl]piperidin-1-yl}-1,2-dihydroquinoline-3-carbonitrile]: 37 nM. Next, `Cc1ccc2oc(C3CCN(c4c(C#N)c(=O)n(C)c5c(Cl)cccc45)CC3)nc2c1` [Example 232, 8-chloro-1-methyl-4-[4-(5-methyl-1,3-benzoxazol-2-yl)piperidin-1-yl]-2-oxo-1,2-dihydroquinoline-3-carbonitrile]: 163 nM; `COc1cc2c(cc1C)c(N1CCC(c3nc4cc(C)ccc4o3)CC1)c(C#N)c(=O)n2C` [Example 419, 7-methoxy-1,6-dimethyl-4-[4-(5-methyl-1,3-benzoxazol-2-yl)piperidin-1-yl]-2-oxo-1,2-dihydroquinoline-3-carbonitrile]: 4.6 nM; `Cc1ccc2oc(C3(C)CCN(c4c(C#N)c(=O)n(C)c5ccc(C)cc45)CC3)nc2c1` [Example 187, 1,6-dimethyl-4-[4-methyl-4-(5-methyl-1,3-benzoxazol-2-yl)piperidin-1-yl]-2-oxo-1,2-dihydroquinoline-3-carbonitrile]: 2 nM. In the case of `Cn1c(=O)c(C#N)c(N2CCC(c3ccc(OC(F)(F)F)cc3)CC2)c2ccccc21` [Example 43, 1-methyl-2-oxo-4-{4-[4-(trifluoromethoxy)phenyl]piperidin-1-yl}-1,2-dihydroquinoline-3-carbonitrile], the IC50 amounted to 11 nM. The same measure for `Cc1cc(C#N)c2cc(C3CCN(c4c(C#N)c(=O)n(C)c5ccccc45)CC3)ccc2n1` [Example 344, 6-[1-(3-cyano-1-methyl-2-oxo-1,2-dihydroquinolin-4-yl)piperidin-4-yl]-2-methylquinoline-4-carbonitrile]: 489 nM; for `Cn1c(=O)c(C#N)c(N2CCC(c3cccnc3)CC2)c2ccccc21` [Example 144, 1-methyl-2-oxo-4-[4-(pyridin-3-yl)piperidin-1-yl]-1,2-dihydroquinoline-3-carbonitrile]: 897 nM.

As to `Cc1ccc2oc(C3(C)CCN(c4c(C(N)=O)c(=O)n(C)c5ccc(C)cc45)CC3)nc2c1` [Example 198, 1,6-dimethyl-4-[4-methyl-4-(5-methyl-1,3-benzoxazol-2-yl)piperidin-1-yl]-2-oxo-1,2-dihydroquinoline-3-carboxamide], the IC50 stood at 2.1 nM. Regarding `Cc1ccccc1-c1nnc(C2CCN(c3c(C(N)=O)c(=O)n(C)c4ccc(Br)cc34)CC2)o1` [Example 525, 6-bromo-1-methyl-4-{4-[5-(2-methylphenyl)-1,3,4-oxadiazol-2-yl]piperidin-1-yl}-2-oxo-1,2-dihydroquinoline-3-carboxamide], the IC50 amounted to 39 nM. On to `Cc1ccc2oc(C3CCN(c4c(C(N)=O)c(=O)n(C)c5cc(OC6CCOC6)c(C6(C(F)(F)F)CC6)cc45)CC3)nc2c1` (racemic) [Example 518, (rac)-1-methyl-4-[4-(5-methyl-1,3-benzoxazol-2-yl)piperidin-1-yl]-2-oxo-7-[(oxolan-3-yl)oxy]-6-[1-(trifluoromethyl)cyclopropyl]-1,2-dihydroquinoline-3-carboxamide], for which the IC50 was determined as 596 nM. With `COc1ccc(C2CCN(c3c(C#N)c(=O)n(C)c4cc(-c5ccccc5)ccc34)CC2)cc1` [Example 92, 4-[4-(4-methoxyphenyl)piperidin-1-yl]-1-methyl-2-oxo-7-phenyl-1,2-dihydroquinoline-3-carbonitrile], the IC50 came to 9.8 nM. Next, `Cc1ccc2oc(C3(C)CCN(c4c(C#N)c(=O)n(C)c5cc(C6CC6)ccc45)CC3)nc2c1` [Example 250, 7-cyclopropyl-1-methyl-4-[4-methyl-4-(5-methyl-1,3-benzoxazol-2-yl)piperidin-1-yl]-2-oxo-1,2-dihydroquinoline-3-carbonitrile]: 9.1 nM.

Take `COc1ccc2c(c1)c(N1CCC(c3nc(-c4ccccc4)no3)CC1)c(C#N)c(=O)n2C` [Example 437, 6-methoxy-1-methyl-2-oxo-4-[4-(3-phenyl-1,2,4-oxadiazol-5-yl)piperidin-1-yl]-1,2-dihydroquinoline-3-carbonitrile]: the IC50 was found to be 27 nM. Next, `COCc1ccc2c(N3CCC(C)(c4nc5cc(C)ccc5o4)CC3)c(C#N)c(=O)n(C)c2c1` [Example 212, 7-(methoxymethyl)-1-methyl-4-[4-methyl-4-(5-methyl-1,3-benzoxazol-2-yl)piperidin-1-yl]-2-oxo-1,2-dihydroquinoline-3-carbonitrile]: 0.3 nM. In the case of `Cc1ccc2oc(C3(C)CCN(c4c(C#N)c(=O)n(C)c5cc(OC6CC6)ccc45)CC3)nc2c1` [Example 244, 7-(cyclopropyloxy)-1-methyl-4-[4-methyl-4-(5-methyl-1,3-benzoxazol-2-yl)piperidin-1-yl]-2-oxo-1,2-dihydroquinoline-3-carbonitrile], the IC50 amounted to 4.6 nM.

What is called IC50 is the midpoint of a concentration-inhibition curve.
